Measured values published in ChEMBL document CHEMBL1147207 (Eur J Med Chem, 2007).
Active and inactive are the calls of the source. No cut-off for these calls is given here.

Legend:
[1] = target: T1, Oxytocin receptor (Rattus norvegicus) (UniProt P70536); assay: Agonist activity in rat uterus by uterotonic assay; type: functional, tissue-based
T1 sequence (whole entry): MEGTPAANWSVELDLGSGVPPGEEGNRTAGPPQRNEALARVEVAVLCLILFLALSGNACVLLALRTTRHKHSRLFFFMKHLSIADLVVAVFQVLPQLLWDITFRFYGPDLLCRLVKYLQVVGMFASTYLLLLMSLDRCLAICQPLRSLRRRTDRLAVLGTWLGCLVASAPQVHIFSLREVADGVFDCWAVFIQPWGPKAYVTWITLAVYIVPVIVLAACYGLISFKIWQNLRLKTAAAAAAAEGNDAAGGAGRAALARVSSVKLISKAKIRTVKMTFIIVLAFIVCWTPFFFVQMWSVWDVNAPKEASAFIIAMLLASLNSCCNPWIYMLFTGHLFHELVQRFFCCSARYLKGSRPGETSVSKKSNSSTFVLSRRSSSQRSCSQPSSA

[2] = target: Vasopressin V1a receptor (Rattus norvegicus) (UniProt P30560); assay: Antagonist activity in phenoxybenzamine-treated rat by Pressor assay; conditions: read-out: pA2 (converted)
[3] = target: T2, Oxytocin receptor (Rattus norvegicus, UniProt P70536); assay: Antagonist activity in rat uterus by uterotonic assay; type: functional, tissue-based; conditions: read-out: pA2 (converted)
T2 sequence (P70536 whole entry): T1 sequence (whole entry)

[4] = target: T3, Oxytocin receptor (Homo sapiens, UniProt P30559); assay: Displacement of [3H]OT from human OT receptor expressed in HEK cells; type: cell-based, HEK293
T3 sequence (P30559 whole entry): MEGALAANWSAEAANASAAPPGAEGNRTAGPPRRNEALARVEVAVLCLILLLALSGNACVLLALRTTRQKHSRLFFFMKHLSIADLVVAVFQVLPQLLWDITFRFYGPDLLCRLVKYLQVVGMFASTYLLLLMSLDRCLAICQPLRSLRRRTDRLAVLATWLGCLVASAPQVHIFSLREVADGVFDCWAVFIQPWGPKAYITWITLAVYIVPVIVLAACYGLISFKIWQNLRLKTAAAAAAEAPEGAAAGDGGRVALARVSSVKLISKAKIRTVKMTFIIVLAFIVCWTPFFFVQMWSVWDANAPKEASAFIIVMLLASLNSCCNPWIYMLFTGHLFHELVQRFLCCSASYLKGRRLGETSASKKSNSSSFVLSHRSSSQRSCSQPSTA

[5] = target: Vasopressin V1a receptor (Rattus norvegicus) (UniProt P30560); assay: Agonist activity in phenoxybenzamine-treated rat up to 0.16 mg/kg by Pressor assay

Chain of Vasopressin V1a receptor (Rattus norvegicus) (P30560 whole entry, looked up): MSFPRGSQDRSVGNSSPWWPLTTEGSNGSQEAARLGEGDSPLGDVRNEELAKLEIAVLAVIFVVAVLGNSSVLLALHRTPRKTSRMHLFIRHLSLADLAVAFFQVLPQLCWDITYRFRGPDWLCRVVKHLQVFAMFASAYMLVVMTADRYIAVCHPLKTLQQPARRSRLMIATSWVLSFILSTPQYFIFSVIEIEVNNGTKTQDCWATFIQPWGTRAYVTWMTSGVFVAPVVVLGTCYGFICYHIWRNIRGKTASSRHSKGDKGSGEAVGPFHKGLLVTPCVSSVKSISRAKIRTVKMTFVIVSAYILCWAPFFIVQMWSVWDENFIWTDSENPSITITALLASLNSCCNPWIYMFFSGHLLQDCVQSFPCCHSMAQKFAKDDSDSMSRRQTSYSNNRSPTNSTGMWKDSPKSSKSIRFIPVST

Row | Activity [1] | Kb [2] | Kb [3] | IC50 [4] | Activity [5] | SMILES
1 | 0 IU/mg | > 1000 nM | 6.31 nM | 51 nM | inactive | CCOc1ccc(CC2NC(=O)CCSSC[C@@H](C(=O)N3Cc4ccccc4C[C@@H]3C(=O)N[C@@H](CC(C)C)C(=O)NCC(N)=O)NC(=O)[C@H](CC(N)=O)NC(=O)[C@H](CCC(N)=O)NC(=O)[C@H]([C@@H](C)CC)NC2=O)cc1 (stereo in doubt)
2 | 3.5 IU/mg | > 1000 nM | 35.5 nM | 103 nM | inactive | CC[C@H](C)[C@@H]1NC(=O)[C@H](Cc2ccc(O)cc2)NC(=O)CCSSC[C@@H](C(=O)N2Cc3ccccc3C[C@H]2C(=O)N[C@@H](CC(C)C)C(=O)NCC(N)=O)NC(=O)[C@H](CC(N)=O)NC(=O)[C@H](CCC(N)=O)NC1=O
3 | 0 IU/mg | > 1000 nM | 100 nM | 730 nM | inactive | CC[C@H](C)[C@@H]1NC(=O)[C@H](Cc2ccc(O)cc2)NC(=O)[C@@H](N)CSSC[C@@H](C(=O)N2Cc3ccccc3C[C@@H]2C(=O)N[C@@H](CC(C)C)C(=O)NCC(N)=O)NC(=O)[C@H](CC(N)=O)NC(=O)[C@H](CCC(N)=O)NC1=O
